This experiment concerns P388. Kind of experiment: Cytotoxicity against mouse P388 cells. It counts as functional, cell-based.

The structures appear in SMILES notation. Non-standard residues stand in square brackets, D forms with d. Residues, ends and D or L forms follow the SMILES beside them. *: point of attachment. NMeI = CC[C@H](C)[C@H](NC)C(=O)O; NMeV = CN[C@H](C(=O)O)C(C)C; X2 = C[S+]([O-])/C=C/C(=O)*; NMeA = CN[C@@H](C)C(=O)O; X1 = O=C(/C=C/c1ccccc1)*

As a reminder, the IC50 is the concentration needed to halve the response being measured.

`CC[C@H](C)[C@@H](C(=O)NC)N(C)C(=O)[C@@H](NC(=O)[C@H](C(C)C)N(C)C(=O)[C@H]([C@@H](C)CC)N(C)C(=O)[C@H](C)N(C)C(=O)/C=C/c1ccccc1)C(C)C` [PTERULAMIDE IV] (X1-[NMeA][NMeI][NMeV]V[NMeI]-NHMe) returned an IC50 of 1.33 µM.
For the compound `CC[C@H](C)[C@@H](C(=O)NC)N(C)C(=O)[C@@H](NC(=O)[C@H](C(C)C)N(C)C(=O)[C@H]([C@@H](C)CC)N(C)C(=O)[C@H](C)N(C)C(=O)/C=C/[S+](C)[O-])C(C)C` (some centres not stated) [PTERULAMIDE I] (X2-[NMeA][NMeI][NMeV]V[NMeI]-NHMe), the IC50 amounted to 0.79 µM.

The record behind these values is ChEMBL document CHEMBL1158071, “Pterulamides I-VI, linear peptides from a Malaysian Pterula sp” (J Nat Prod, 2006).
